Assay: Simulated gastrointestinal dissolution testing (FloVitro apparatus, USP simulated gastric and intestinal fluids)
Assay type: physicochemical
Details: 100 mg dose
Description: The dissolution test used procedures devised by DOW Chemical using their proprietary FloVitro™ dissolution apparatus described in U.S. Pat. No. 6,799,123B2 and in the publication titled “FloVitro™ Technology” published online at:
The system used two different media that were combined during the process. The fluid flow rates were:
Simulated gastric fluid=7.7 ml/min
Simulated intestinal fluid=13.1 ml/mi
Total flow through analyzer=20.8 ml/min
To Cell 1: USP simulated gastric fluid (no pepsin)
To Cell 2: USP simulated intestinal fluid (pH 6.8) (SIF)
The samples tested were: • a) 100 mg dose neat benzonatate • b) 220.48 mg of IRP69H resinate: 87.97 mg benzonatate dose • c) 225.15 mg of IRP64H resinate: 102.21 mg benzonatate dose a) 100 mg Neat Benzonatate

In the case of `CCCCNc1ccc(C(=O)OCCOCCOCCOCCOCCOCCOCCOCCOCCOC)cc1` [BENZ, benzonatate], the “Concentration of Homolog in Effluent Total” value (120 min) is reported as 18.66 mg/L, the “Concentration of Homolog in Effluent n = 3” value (120 min) is reported as 0.05 mg/L and the “Concentration of Homolog in Effluent n = 4” value (120 min) is reported as 0.20 mg/L. For the same compound, the “Concentration of Homolog in Effluent n = 5” value (120 min) was 0.53 mg/L, the “Concentration of Homolog in Effluent n = 6” value (120 min) was 1.18 mg/L and the “Concentration of Homolog in Effluent n = 7” value (120 min) was 1.99 mg/L. The “Concentration of Homolog in Effluent n = 8” value (120 min) was 2.67 mg/L, the “Concentration of Homolog in Effluent n = 9” value (120 min) was 3.01 mg/L and the “Concentration of Homolog in Effluent n = 10” value (120 min) was 2.84 mg/L. For the same compound, the “Concentration of Homolog in Effluent n = 11” value (120 min) was 2.44 mg/L, the “Concentration of Homolog in Effluent n = 12” value (120 min) was 1.73 mg/L and the “Concentration of Homolog in Effluent n = 13” value (120 min) was 1.13 mg/L. The “Concentration of Homolog in Effluent n = 14” value (120 min) was 0.59 mg/L, the “Concentration of Homolog in Effluent n = 15” value (120 min) was 0.31 mg/L and the “Concentration of Homolog in Effluent n = 16” value (120 min) was 0.00 mg/L. The “Concentration of Homolog in Effluent n = 17” value (120 min) was 0.00 mg/L, the “Cumul. (cumulative release in effluent)” value (120 min) was 81.10 mg and the “Concentration of Homolog in Effluent Total” value (180 min) was 9.68 mg/L. For the same compound, the “Concentration of Homolog in Effluent n = 3” value (180 min) was 0.00 mg/L, the “Concentration of Homolog in Effluent n = 4” value (180 min) was 0.10 mg/L and the “Concentration of Homolog in Effluent n = 5” value (180 min) was 0.29 mg/L. The “Concentration of Homolog in Effluent n = 6” value (180 min) was 0.61 mg/L, the “Concentration of Homolog in Effluent n = 7” value (180 min) was 1.04 mg/L and the “Concentration of Homolog in Effluent n = 8” value (180 min) was 1.41 mg/L. For the same compound, the “Concentration of Homolog in Effluent n = 9” value (180 min) was 1.57 mg/L, the “Concentration of Homolog in Effluent n = 10” value (180 min) was 1.51 mg/L and the “Concentration of Homolog in Effluent n = 11” value (180 min) was 1.26 mg/L. The “Concentration of Homolog in Effluent n = 12” value (180 min) was 0.90 mg/L, the “Concentration of Homolog in Effluent n = 13” value (180 min) was 0.57 mg/L and the “Concentration of Homolog in Effluent n = 14” value (180 min) was 0.30 mg/L. The “Concentration of Homolog in Effluent n = 15” value (180 min) was 0.11 mg/L, the “Concentration of Homolog in Effluent n = 16” value (180 min) was 0.00 mg/L and the “Concentration of Homolog in Effluent n = 17” value (180 min) was 0.00 mg/L. The “Cumul. (cumulative release in effluent)” value (180 min) was 90.57 mg, the “Concentration of Homolog in Effluent Total” value (240 min) was 5.50 mg/L and the “Concentration of Homolog in Effluent n = 3” value (240 min) was 0.00 mg/L. For the same compound, the “Concentration of Homolog in Effluent n = 4” value (240 min) was 0.06 mg/L, the “Concentration of Homolog in Effluent n = 5” value (240 min) was 0.16 mg/L and the “Concentration of Homolog in Effluent n = 6” value (240 min) was 0.36 mg/L. The “Concentration of Homolog in Effluent n = 7” value (240 min) was 0.60 mg/L, the “Concentration of Homolog in Effluent n = 8” value (240 min) was 0.78 mg/L and the “Concentration of Homolog in Effluent n = 9” value (240 min) was 0.89 mg/L. For the same compound, the “Concentration of Homolog in Effluent n = 10” value (240 min) was 0.84 mg/L, the “Concentration of Homolog in Effluent n = 11” value (240 min) was 0.70 mg/L and the “Concentration of Homolog in Effluent n = 12” value (240 min) was 0.49 mg/L. For the same compound, the “Concentration of Homolog in Effluent n = 13” value (240 min) was 0.36 mg/L, the “Concentration of Homolog in Effluent n = 14” value (240 min) was 0.17 mg/L and the “Concentration of Homolog in Effluent n = 15” value (240 min) was 0.09 mg/L. For the same compound, the “Concentration of Homolog in Effluent n = 16” value (240 min) was 0.00 mg/L, the “Concentration of Homolog in Effluent n = 17” value (240 min) was 0.00 mg/L and the “Cumul. (cumulative release in effluent)” value (240 min) was 95.70 mg. The “Concentration of Homolog in Effluent Total” value (300 min) was 2.73 mg/L, the “Concentration of Homolog in Effluent n = 3” value (300 min) was 0.00 mg/L and the “Concentration of Homolog in Effluent n = 4” value (300 min) was 0.00 mg/L. For the same compound, the “Concentration of Homolog in Effluent n = 5” value (300 min) was 0.09 mg/L, the “Concentration of Homolog in Effluent n = 6” value (300 min) was 0.18 mg/L and the “Concentration of Homolog in Effluent n = 7” value (300 min) was 0.30 mg/L. For the same compound, the “Concentration of Homolog in Effluent n = 8” value (300 min) was 0.41 mg/L, the “Concentration of Homolog in Effluent n = 9” value (300 min) was 0.45 mg/L and the “Concentration of Homolog in Effluent n = 10” value (300 min) was 0.42 mg/L. For the same compound, the “Concentration of Homolog in Effluent n = 11” value (300 min) was 0.39 mg/L, the “Concentration of Homolog in Effluent n = 12” value (300 min) was 0.25 mg/L and the “Concentration of Homolog in Effluent n = 13” value (300 min) was 0.15 mg/L. For the same compound, the “Concentration of Homolog in Effluent n = 14” value (300 min) was 0.09 mg/L, the “Concentration of Homolog in Effluent n = 15” value (300 min) was 0.00 mg/L and the “Concentration of Homolog in Effluent n = 16” value (300 min) was 0.00 mg/L. The “Concentration of Homolog in Effluent n = 17” value (300 min) was 0.00 mg/L, the “Cumul. (cumulative release in effluent)” value (300 min) was 98.15 mg and the “Concentration of Homolog in Effluent Total” value (360 min) was 1.20 mg/L. The “Concentration of Homolog in Effluent n = 3” value (360 min) was 0.00 mg/L, the “Concentration of Homolog in Effluent n = 4” value (360 min) was 0.00 mg/L and the “Concentration of Homolog in Effluent n = 5” value (360 min) was 0.05 mg/L. For the same compound, the “Concentration of Homolog in Effluent n = 6” value (360 min) was 0.11 mg/L, the “Concentration of Homolog in Effluent n = 7” value (360 min) was 0.15 mg/L and the “Concentration of Homolog in Effluent n = 8” value (360 min) was 0.19 mg/L. For the same compound, the “Concentration of Homolog in Effluent n = 9” value (360 min) was 0.23 mg/L, the “Concentration of Homolog in Effluent n = 10” value (360 min) was 0.20 mg/L and the “Concentration of Homolog in Effluent n = 11” value (360 min) was 0.17 mg/L. The “Concentration of Homolog in Effluent n = 12” value (360 min) was 0.10 mg/L, the “Concentration of Homolog in Effluent n = 13” value (360 min) was 0.00 mg/L and the “Concentration of Homolog in Effluent n = 14” value (360 min) was 0.00 mg/L. The “Concentration of Homolog in Effluent n = 15” value (360 min) was 0.00 mg/L, the “Concentration of Homolog in Effluent n = 16” value (360 min) was 0.00 mg/L and the “Concentration of Homolog in Effluent n = 17” value (360 min) was 0.00 mg/L. The “Cumul. (cumulative release in effluent)” value (360 min) was 99.32 mg, the “Concentration of Homolog in Effluent Total” value (420 min) was 0.67 mg/L and the “Concentration of Homolog in Effluent n = 3” value (420 min) was 0.00 mg/L. The “Concentration of Homolog in Effluent n = 4” value (420 min) was 0.00 mg/L, the “Concentration of Homolog in Effluent n = 5” value (420 min) was 0.00 mg/L and the “Concentration of Homolog in Effluent n = 6” value (420 min) was 0.06 mg/L. The “Concentration of Homolog in Effluent n = 7” value (420 min) was 0.08 mg/L, the “Concentration of Homolog in Effluent n = 8” value (420 min) was 0.11 mg/L and the “Concentration of Homolog in Effluent n = 9” value (420 min) was 0.12 mg/L. The “Concentration of Homolog in Effluent n = 10” value (420 min) was 0.11 mg/L, the “Concentration of Homolog in Effluent n = 11” value (420 min) was 0.09 mg/L and the “Concentration of Homolog in Effluent n = 12” value (420 min) was 0.10 mg/L. For the same compound, the “Concentration of Homolog in Effluent n = 13” value (420 min) was 0.00 mg/L, the “Concentration of Homolog in Effluent n = 14” value (420 min) was 0.00 mg/L and the “Concentration of Homolog in Effluent n = 15” value (420 min) was 0.00 mg/L. For the same compound, the “Concentration of Homolog in Effluent n = 16” value (420 min) was 0.00 mg/L, the “Concentration of Homolog in Effluent n = 17” value (420 min) was 0.00 mg/L and the “Cumul. (cumulative release in effluent)” value (420 min) was 99.74 mg. The “Concentration of Homolog in Effluent Total” value (480 min) was 0.00 mg/L, the “Concentration of Homolog in Effluent n = 3” value (480 min) was 0.00 mg/L and the “Concentration of Homolog in Effluent n = 4” value (480 min) was 0.00 mg/L. For the same compound, the “Concentration of Homolog in Effluent n = 5” value (480 min) was 0.00 mg/L, the “Concentration of Homolog in Effluent n = 6” value (480 min) was 0.00 mg/L and the “Concentration of Homolog in Effluent n = 7” value (480 min) was 0.00 mg/L. For the same compound, the “Concentration of Homolog in Effluent n = 8” value (480 min) was 0.00 mg/L, the “Concentration of Homolog in Effluent n = 9” value (480 min) was 0.00 mg/L and the “Concentration of Homolog in Effluent n = 10” value (480 min) was 0.00 mg/L. For the same compound, the “Concentration of Homolog in Effluent n = 11” value (480 min) was 0.00 mg/L, the “Concentration of Homolog in Effluent n = 12” value (480 min) was 0.00 mg/L and the “Concentration of Homolog in Effluent n = 13” value (480 min) was 0.00 mg/L. For the same compound, the “Concentration of Homolog in Effluent n = 14” value (480 min) was 0.00 mg/L, the “Concentration of Homolog in Effluent n = 15” value (480 min) was 0.00 mg/L and the “Concentration of Homolog in Effluent n = 16” value (480 min) was 0.00 mg/L. For the same compound, the “Concentration of Homolog in Effluent n = 17” value (480 min) was 0.00 mg/L.

— US8808743B2, “Benzonatate compositions and methods of use” (priority 2010, dated 2014)
